Legend:
[1] = Pore volume by nitrogen gas adsorption (BJH method, BELSORP-mini II); assay type: physicochemical; details: total pore volume Vp, nitrogen adsorption at 77.3 K
From the text: Determining the Pore Volume
The pore volume in accordance with the present invention is characterised by means of gas adsorption. The recording of physisorption isotherms (adsorption and desorption isotherms) of inert gas molecules at low temperatures is routinely used for determining solids parameters.
The BJH method provides an algorithm for the calculation of pore width distribution from nitrogen adsorption data on the assumption of a cylindrical pore geometry. In that respect consideration is given to the change in the adsorbed volume in the pores in dependence on the pore radius, wherein the pore radius distribution function is related as a relative value to the total pore volume. […] It is assumed that the entire pore system is filled with a capillary condensate.

[2] = Thawing and baking trials with yeast-raised wheat frozen doughs in a microwave oven; details: yeast-raised wheat frozen dough; for ΔT (temperature difference between crust temperature and crumb temperature): 2 parts by weight additive, 600 watts, 120 seconds; for Microwave activity: assessment scale from ΔT
Procedure: Dough Composition (Basic Recipe):
In addition 2 parts by weight of microwave absorber were added to the basic recipe.
• Mixing and kneading time: 3+2 minutes (the latter in a Stephan mixer) • Dough standing time: 20 minutes • Dough piece weight: 200 g • Cooking time of the dough pieces: 20 minutes • Freezing time: about 4 hours • Deep freeze storage time: about 2 days Thawing and Baking Trials:
The deep-frozen dough pieces were exposed to microwave radiation in a microwave oven from Panasonic (model: NN-GD560M—inverter microwave) for a predetermined period of 120 seconds and with a predetermined microwave power of 600 watts (according to the device indication). After 2 minutes of standing time the temperature of the crust and the crumb was measured by means of an infrared temperature sensor at various measurement points on the dough piece.
Measurement value 1 (M1)=average crust temperature outside
Measurement value 2 (M2)=average crumb temperature in the interior of the dough piece.

Row | Compound | Pore Volume [1] | ΔT (temperature difference between crust temperature and crumb temperature) [2] [°C] | Microwave activity [2]
1 | O=C([O-])[O-].[Ca+2] [CaCO3, Calcium carbonate] | 9.0 10^−3 cm^3/g | 31.5 | 2 (ΔT=25 to 40° C.=good)
2 | O=P([O-])([O-])OP(=O)([O-])[O-].[Cu+2].[Cu+2] [CuPP, Copper-II pyrophosphate] | 12 10^−3 cm^3/g | 37.9 | 2 (ΔT=25 to 40° C.=good)
3 | O.O.O=P([O-])([O-])O.[Ca+2] [DCPD, Dicalcium phosphate dihydrate] | 5.3 10^−3 cm^3/g | 26.2 | 2 (ΔT=25 to 40° C.=good)
4 | O.O.O.O=P([O-])([O-])O.[Mg+2] [DMP, Dimagnesium phosphate trihydrate] | 6.0 10^−3 cm^3/g | 41.9 | 1 (ΔT=>40° C.=very good)
5 | O=P([O-])(O)O.O=P([O-])(O)O.[Ca+2] [MCPA(V), Monocalcium phosphate anhydrate, reference compound] | 2.3 10^−3 cm^3/g | 17.0 | 3 (ΔT=<25° C.=no additional activity)
6 | O.O=P([O-])(O)O.O=P([O-])(O)O.[Ca+2] [MCPM, Monocalcium phosphate monohydrate] | 23 10^−3 cm^3/g | 32.5 | 2 (ΔT=25 to 40° C.=good)
7 | O=P([O-])(O)O.O=P([O-])(O)O.[Mg+2] [MSPA, Monomagnesium phosphate anhydrate] | 4.5 10^−3 cm^3/g | 41.1 | 1 (ΔT=>40° C.=very good)
8 | [Mg+2].[OH-].[OH-] [Mg(OH)2, Magnesium hydroxide] | 18.2 10^−3 cm^3/g | 62.5 | 1 (ΔT=>40° C.=very good)
9 | [Cl-].[Cl-].[Mg+2] [MgCl2(V), Magnesium chloride, reference compound] | 2.0 10^−3 cm^3/g | 19.8 | 3 (ΔT=<25° C.=no additional activity)
10 | O=S(=O)([O-])[O-].O=S(=O)([O-])[O-].[Al+3].[Na+] [SAS, Acid sodium aluminium sulphate] | 3.9 10^−3 cm^3/g | 39.6 | 2 (ΔT=25 to 40° C.=good)
11 | O=C([O-])CC(O)(CC(=O)[O-])C(=O)[O-].O=C([O-])CC(O)(CC(=O)[O-])C(=O)[O-].[Ca+2].[Ca+2].[Ca+2] [TCC, Tricalcium citrate] | 14.2 10^−3 cm^3/g | 28.6 | 2 (ΔT=25 to 40° C.=good)
12 | O=P([O-])([O-])[O-].O=P([O-])([O-])[O-].[Ca+2].[Ca+2].[Ca+2] [TCP, Tricalcium phosphate] | 120 10^−3 cm^3/g | 36.2 | 2 (ΔT=25 to 40° C.=good)
13 | O.O.O.O.O=P([O-])([O-])[O-].O=P([O-])([O-])[O-].[Mg+2].[Mg+2].[Mg+2] [TMP, Trimagnesium phosphate tetrahydrate] | 16 10^−3 cm^3/g | 41.0 | 1 (ΔT=>40° C.=very good)
14 | O=P([O-])([O-])OP(=O)([O-])[O-].[Na+].[Na+].[Na+].[Na+] [TSPP, Tetrasodium pyrophosphate] | 3.3 10^−3 cm^3/g | 40.8 | 1 (ΔT=>40° C.=very good)
15 | O.O.O=P([O-])([O-])[O-].O=P([O-])([O-])[O-].[Zn+2].[Zn+2].[Zn+2] [TZP, Trizinc phosphate dihydrate] | 6.3 10^−3 cm^3/g | 38.0 | 2 (ΔT=25 to 40° C.=good)
16 | O=P([O-])([O-])OP(=O)([O-])[O-].[Zn+2].[Zn+2] [ZPP, Zinc pyrophosphate] | 10.5 10^−3 cm^3/g | 37.9 | 2 (ΔT=25 to 40° C.=good)
17 | Ammonium molybdate [AmMD(V), reference compound] | 2.6 10^−3 cm^3/g | 24.2 | 3 (ΔT=<25° C.=no additional activity)
18 | Calcium gluconate [CaGl] | 10.0 10^−3 cm^3/g | 36.6 | 2 (ΔT=25 to 40° C.=good)

Source: patent US10231463B2, “Food mass suitable for microwaving” (Chemische Fabrik Budenheim KG, priority 2013, dated 2019)
